Test results: patent US20210382058A1, “PATIENT SELECTION FOR TREATMENT OF MYC POSITIVE CANCERS WITH INDENOISOQUINOLINES” (Purdue Research Foundation, priority 2020, published 2021)
Read-outs that look alike come from different tables or passages of the source. Values belong to the molecule of their own block, whether it stands above or below them.

Key:
MycG4 (MycPu22 DNA) = assay: FRET-melting assay (thermal stabilization of MycG4); assay type: binding, human; details: FIG. 4
Method: To confirm the stabilizing effect of indenoisoquinolines on MycG4, the Tm values of MycG4 were measured in the presence of indenoisoquinoline compounds in 10 mM K^+ using dual-3′-FAM- and 5′-TAMRA-labeled MycPu22 DNA by FRET-melting experiments. MycPu22 DNA forms a single MycG4 structure and was used for NMR structure determination (FIG. 1B, right).^43 Therefore, MycPu22 provides the best molecular system for MycG4 and was used in all the subsequent experiments. […] (FIG. 2B). A clear positive correlation was observed between the indenoisoquinolines' ability to induce MycG4 formation and to increase its thermal stability (FIG. 2C).
FRET-melting experiments. The stock solution containing 100 μM 3′-TAMRA (Ex. 555 nm/Em. 580 nm), 5′-FAM (Ex. 490 nm/Em. 520 nm) dual-labeled MycPu22 DNA sequence was first diluted to 2 μM using 7.5 mM KCl, 2.5 mM phosphate buffer, pH 7.0. […] With gradually increasing temperature, the MycPu22 DNA is unfolded from the G4 form to a single-stranded conformation where the FAM is far apart to the TAMRA, which results in a high FAM fluorescence. Melting curves for the determination of Tm were then obtained by recording FAM fluorescence with increasing temperatures from 25 to 95° C. at a rate of 0.9° C./min using a QuantStudio 6 Flex Real-Time PCR System. The Tm values were determined by the maximum of the first derivative plot of the melting curves. […]

[1] = test system: MYC protein expression in MCF-7 breast cancer cells; assay: Western blotting of MYC protein level in MCF-7 cells; assay type: cell-based, human; details: Homo sapiens, MCF7; western blotting, MCF-7 cells, 0.5, 1, 2, and 4 μM, 24 hours; read-out: MYC Inhibition
Method: MCF-7 cells were incubated with each compound at four concentrations (0.5, 1, 2, and 4 μM) for 24 hours, and the MYC protein levels were measured (FIG. 3A and FIGS. 12 A to 12 F).
Cells were incubated at 37° C. with 5% CO2.
The gels were cut into strips that contained the proteins of interest and transferred to nitrocellulose membrane (I323002, Invitrogen) using an iBlot 2 Dry Transfer Device (Invitrogen). Immunoblotting was carried out according to standard procedures using the ECL detection method. The membrane was hybridized with the following antibodies: monoclonal anti-MYC (1:1000 dilution; rabbit, Cell Signaling Technology), monoclonal anti-GAPDH (1:2000 dilution; rabbit, Cell Signaling Technology).

NCI-60 cancer cell lines = assay: NCI-60 cancer cell line drug screen (GI50, MGM); assay type: cell-based, human; details: Homo sapiens; for GI50: read-out: Antiproliferative Activities [GI50 (μM)]
Method: Cancer cells were incubated with the test compounds at five concentrations ranging from 100 μM to 10 nM for 48 h. […] The approximate average of GI50 values across the entire panel of NCI-60 cancer cell lines for each compound was recorded as the MGM value.

MycG4 binding and stabilizing activity (SAR) (MycG4 (MycPu22 DNA)): weakened
SMILES: O=C1c2ccccc2-c2c1c1ccccc1c(=O)n2CCCN1CCOCC1 [Compound 16]

MycG4 binding and stabilizing activity (SAR) (MycG4 (MycPu22 DNA)): medium
SMILES: COc1cc2c3c(n(CCCN(C)C)c(=O)c2cc1OC)-c1cc2c(cc1C3=O)OCO2 [Compound 47]
minimal effective concentration [1]: 2 µM
GI50 (NCI-60 cancer cell lines; A549, Non-Small Cell Lung Cancer, A549/ATCC): 0.89 µM
GI50 (NCI-60 cancer cell lines; CCRF-CEM, Leukemia, CCRF-CEM): < 0.01 µM
GI50 (NCI-60 cancer cell lines; COLO 205, Colon Cancer, COLO 205): 0.94 µM
GI50 (NCI-60 cancer cell lines; EKVX, Non-Small Cell Lung Cancer, EKVX): 1.46 µM
GI50 (NCI-60 cancer cell lines; HCC 2998, Colon Cancer, HCC-2998): 0.13 µM
GI50 (NCI-60 cancer cell lines; HCT-116, Colon Cancer, HCT-116): 0.22 µM
GI50 (NCI-60 cancer cell lines; HL-60, Leukemia, HL-60(TB)): 1.6 µM
GI50 (NCI-60 cancer cell lines; HOP-92, Non-Small Cell Lung Cancer, HOP-92): 1.3 µM
GI50 (NCI-60 cancer cell lines; Leukemia, SR): < 0.01 µM
GI50 (NCI-60 cancer cell lines; MOLT-4, Leukemia, MOLT-4): < 0.01 µM
GI50 (NCI-60 cancer cell lines; NCI-H23, Non-Small Cell Lung Cancer, NCI-H23): 0.19 µM
GI50 (NCI-60 cancer cell lines; NCI-H226, Non-Small Cell Lung Cancer, NCI-H226): 1.4 µM
GI50 (NCI-60 cancer cell lines; NCI-H322M, Non-Small Cell Lung Cancer, NCI-H322M): 1.56 µM
GI50 (NCI-60 cancer cell lines; NCI-H460, Non-Small Cell Lung Cancer, NCI-H460): 0.28 µM
GI50 (NCI-60 cancer cell lines; NCI-H522, Non-Small Cell Lung Cancer, NCI-H522): 0.31 µM
GI50 (NCI-60 cancer cell lines; RPMI-8226, Leukemia, RPMI-8226): 0.3 µM
mean GI50 across NCI-60 panel (MGM) (NCI-60 cancer cell lines; average of GI50 values across the entire panel of NCI-60 cancer cell lines): 390 nM
